Data on one compound can be found in patent US20080312298A1, “Methods for Identification of Modulators of Carm1 Methyl Transferase Activity” (priority 2007, published 2008).

This test addresses T1, CARM1 (Homo sapiens, UniProt Q86X55).
T1 construct: made in house; host or cells: E. coli
T1 sequence (Q86X55 1-608): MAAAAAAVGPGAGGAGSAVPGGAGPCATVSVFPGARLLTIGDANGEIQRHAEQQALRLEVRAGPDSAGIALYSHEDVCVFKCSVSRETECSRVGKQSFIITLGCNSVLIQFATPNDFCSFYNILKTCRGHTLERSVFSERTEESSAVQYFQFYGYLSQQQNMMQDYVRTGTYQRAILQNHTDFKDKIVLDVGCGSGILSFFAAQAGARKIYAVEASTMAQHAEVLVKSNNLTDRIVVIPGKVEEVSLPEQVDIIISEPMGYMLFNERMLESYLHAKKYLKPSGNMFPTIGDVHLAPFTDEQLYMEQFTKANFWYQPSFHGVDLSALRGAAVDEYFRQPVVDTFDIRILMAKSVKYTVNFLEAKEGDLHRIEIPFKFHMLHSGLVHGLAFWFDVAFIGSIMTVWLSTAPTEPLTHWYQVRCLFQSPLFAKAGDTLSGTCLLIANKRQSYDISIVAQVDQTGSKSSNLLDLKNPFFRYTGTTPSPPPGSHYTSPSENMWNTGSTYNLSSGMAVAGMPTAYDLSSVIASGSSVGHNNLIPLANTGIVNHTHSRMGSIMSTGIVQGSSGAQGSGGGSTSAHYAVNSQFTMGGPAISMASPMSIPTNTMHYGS
Kind of test: CARM1 biochemical assay (scintillation proximity assay, SPA). An excerpt: CARM1 biochemical Assay. (e.g. for Determining IC50 Values).
A fusion protein of CARM1 to MBP (Maltose Binding protein), expressed and purified from E. coli, was used to methylate peptides derived from either the N-terminus of histone H3 (acetyl-STGGKAPRKQLATKAARK-biotin) or from PABP1 (acetyl-[…]-biotin). The H3 peptide has two residues R17 and R26 that have been reported to be methylated by CARM1 (Brandon et al., Biochemistry, 2001, 40(19):5747-5756). The PABP1 peptide also contains two arginine residues, R455 and R460, similarly methylated by CARM1 (Lee and Bedford, EMBO Rep. 2002, 3(3):268-73). The methylation reaction was conducted in the presence of tritiated S-Adenosyl-L-Methionine (3H-SAM), 1 μg MBP-CARM1, 250 nM peptide substrate, and assay buffer (50 mM Tris pH 8.0, 0.03% BSA, 3 mM DTT). The reaction was allowed to proceed at room temperature for 75 minutes before being stopped by Stop buffer (25 mM Tris pH 7.4, 100 mM EDTA, 1% Tween 20) and Streptavidin-coated SPA beads (2 mg/ml) (GE Healthcare). The beads were allowed to settle overnight before the signal was counted in a TOPCOUNT. The final SAM concentration in the reaction and the ratio of tritiated to unlabelled SAM was adjusted to give a good signal/noise. […]
(In general: In a scintillation proximity assay essentially only radioactivity close to the scintillant gives light.)

With `CNC[C@H](O)c1cccc(O)c1`, the “mode of inhibition with respect to SAM” value was “SAM competitive”. The IC50 entry (at saturating SAM concentrations) is reported as “low micromolar”.
